The target of one experiment is TBK1 (Homo sapiens (Human), UniProt Q9UHD2). Briefly: Lanthascreen TR-FRET kinase inhibition assay, TBK1. Conditions: 20 μM ATP (apparent Km), 8 nM kinase, 2.5 h. Format: biochemical. The procedure, abridged:
(§1)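 TR-FRET: terbium phosphospecific antibody detects phosphorylation of 400 nM fluorescein-IkBα peptide, 20 μM ATP, 20 °C, HEPES pH 7.5 with 3% DMSO. IKKε at 2 nM, 1 h reaction; TBK1 at 8 nM, 2.5 h reaction; started by kinase addition.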
Background: Time-resolved FRET reads energy transfer from a long-lived donor to a nearby acceptor.

The target of the next experiment is IKKε (Homo sapiens (Human), UniProt Q14164). As to the kind of experiment: Lanthascreen TR-FRET kinase inhibition assay, IKKε. Format: biochemical. Conditions: 20 μM ATP (apparent Km), 2 nM kinase, 1 h. The procedure, abridged: as §1

SMILES strings stand for the structures.

Data on 27 compounds can be found in US9433622B2, “Pyrimidine compounds useful in the treatment of diseases mediated by IKKE and/or TBK1 mechanisms” (DOMAINEX LIMITED, priority 2013, dated 2016).

By IC50 is commonly meant the midpoint of a concentration-inhibition curve.

IKKε, sequence (Q14164 whole entry): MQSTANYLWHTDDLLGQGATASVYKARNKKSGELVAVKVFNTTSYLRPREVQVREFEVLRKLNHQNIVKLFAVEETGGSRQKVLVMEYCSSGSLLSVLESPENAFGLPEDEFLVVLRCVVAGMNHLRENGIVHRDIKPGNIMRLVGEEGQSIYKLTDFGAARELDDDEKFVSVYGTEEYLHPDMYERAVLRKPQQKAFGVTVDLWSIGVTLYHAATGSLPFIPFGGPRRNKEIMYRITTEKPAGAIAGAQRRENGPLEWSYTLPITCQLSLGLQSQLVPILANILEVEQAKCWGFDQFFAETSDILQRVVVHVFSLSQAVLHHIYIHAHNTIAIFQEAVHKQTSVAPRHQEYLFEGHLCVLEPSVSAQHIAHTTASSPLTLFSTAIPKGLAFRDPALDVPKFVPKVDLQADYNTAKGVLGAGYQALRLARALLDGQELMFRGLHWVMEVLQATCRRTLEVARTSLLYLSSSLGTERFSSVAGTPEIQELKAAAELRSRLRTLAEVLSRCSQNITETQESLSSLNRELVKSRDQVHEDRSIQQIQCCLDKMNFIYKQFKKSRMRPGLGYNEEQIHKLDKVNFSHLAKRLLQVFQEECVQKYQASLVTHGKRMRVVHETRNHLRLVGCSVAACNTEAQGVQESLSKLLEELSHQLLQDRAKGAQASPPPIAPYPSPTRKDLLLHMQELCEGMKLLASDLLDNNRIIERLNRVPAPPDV
TBK1, sequence (Q9UHD2 whole entry): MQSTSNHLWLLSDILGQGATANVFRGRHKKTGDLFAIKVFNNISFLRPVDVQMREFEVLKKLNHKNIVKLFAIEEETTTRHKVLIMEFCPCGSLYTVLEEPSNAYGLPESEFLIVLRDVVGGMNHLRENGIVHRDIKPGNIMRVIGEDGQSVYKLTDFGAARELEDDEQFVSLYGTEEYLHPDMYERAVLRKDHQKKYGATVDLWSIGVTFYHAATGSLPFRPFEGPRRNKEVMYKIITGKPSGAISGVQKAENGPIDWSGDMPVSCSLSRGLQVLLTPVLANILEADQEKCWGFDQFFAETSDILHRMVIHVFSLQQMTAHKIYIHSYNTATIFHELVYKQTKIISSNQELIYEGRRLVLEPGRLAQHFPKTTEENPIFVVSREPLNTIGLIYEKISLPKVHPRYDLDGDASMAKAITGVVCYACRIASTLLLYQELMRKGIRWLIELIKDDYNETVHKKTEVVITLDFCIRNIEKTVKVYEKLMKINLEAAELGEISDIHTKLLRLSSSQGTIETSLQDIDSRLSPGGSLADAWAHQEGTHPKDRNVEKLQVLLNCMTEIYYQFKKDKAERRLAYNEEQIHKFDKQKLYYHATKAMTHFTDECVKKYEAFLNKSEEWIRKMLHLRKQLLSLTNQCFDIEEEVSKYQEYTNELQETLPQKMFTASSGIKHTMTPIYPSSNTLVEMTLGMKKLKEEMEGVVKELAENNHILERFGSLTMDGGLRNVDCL

Consider `CC(c1ccc(Nc2nccc(-c3cnc(N4CC[C@H](F)C4)c(C#N)c3)n2)cn1)N1CCOCC1` (stereo partly drawn) [DMX-96, 2-((S)-3-Fluoro-pyrrolidin-1-yl)-5-{2-[6-(1-morpholin-4-yl-ethyl)-pyridin-3-ylamino]-pyrimidin-4-yl}-nicotinonitrile], for which the IC50 on TBK1 was less than 15 nM; on IKKε, less than 30 nM.

Regarding `CO[C@H]1CCN(Cc2ccc(Nc3nccc(-c4cnc(N5CC[C@H](F)C5)c(C#N)c4)n3)cn2)C1` [DMX-97, 2-((S)-3-Fluoro-pyrrolidin-1-yl)-5-{2-[6-((S)-3-methoxy-pyrrolidin-1-ylmethyl)-pyridin-3-ylamino]-pyrimidin-4-yl}-nicotinonitrile], the concentration for half-maximal inhibition (IC50) was less than 30 nM on TBK1 and less than 100 nM at IKKε.

As to `CS(=O)(=O)CCNCc1ccc(Nc2nccc(-c3cnc(N4CC[C@H](F)C4)c(C#N)c3)n2)cn1` [DMX-98, 2-((S)-3-Fluoro-pyrrolidin-1-yl)-5-(2-{6-[(2-methanesulfonyl-ethylamino)-methyl]-pyridin-3-ylamino}-pyrimidin-4-yl)-nicotinonitrile], the IC50 on TBK1 and at IKKε was less than 30 nM in each case.

Turning to `N#Cc1cc(-c2ccnc(Nc3ccnc(CN4CCOCC4)c3)n2)cnc1N1CC[C@H](F)C1` [DMX-99, 2-((S)-3-Fluoro-pyrrolidin-1-yl)-5-[2-(2-morpholin-4-ylmethyl-pyridin-4-ylamino)-pyrimidin-4-yl]-nicotinonitrile], the IC50 at TBK1 is less than 15 nM; on IKKε, less than 30 nM.

Consider `N#Cc1cc(-c2ccnc(Nc3cncc(CN4CCOCC4)c3)n2)cnc1N1CC[C@H](F)C1` [DMX-100, 2-((S)-3-Fluoro-pyrrolidin-1-yl)-5-[2-(5-morpholin-4-ylmethyl-pyridin-3-ylamino)-pyrimidin-4-yl]-nicotinonitrile], for which the IC50 at TBK1 and at IKKε was less than 30 nM throughout.

With `CN(CCO)c1cc(Nc2nccc(-c3cnc(N4CC[C@H](F)C4)c(C#N)c3)n2)ccn1` [DMX-101, 2-((S)-3-Fluoro-pyrrolidin-1-yl)-5-(2-{2-[(2-hydroxy-ethyl)-methyl-amino]-pyridin-4-ylamino}-pyrimidin-4-yl)-nicotinonitrile], the IC50 on TBK1 and at IKKε was less than 30 nM in each case.

As to `N#Cc1cc(-c2ccnc(Nc3ccc(CN4CCNC(=O)C4)nc3)n2)cnc1N1CC[C@H](F)C1` [DMX-102, 2-((S)-3-Fluoro-pyrrolidin-1-yl)-5-{2-[6-(3-oxo-piperazin-1-ylmethyl)-pyridin-3-ylamino]-pyrimidin-4-yl}-nicotinonitrile], the IC50 on TBK1 and on IKKε was less than 15 nM in each case.

In the case of `N#Cc1cc(-c2ccnc(Nc3ccc(CN4CCCOCC4)nc3)n2)cnc1N1CC[C@H](F)C1` [DMX-103, 2-((S)-3-Fluoro-pyrrolidin-1-yl)-5-[2-(6-[1,4]oxazepan-4-ylmethyl-pyridin-3-ylamino)-pyrimidin-4-yl]-nicotinonitrile], the IC50 on TBK1 and on IKKε was less than 100 nM in each case.

As to `CN(CCO)Cc1ccc(Nc2nccc(-c3cnc(N4CC[C@H](F)C4)c(C#N)c3)n2)cn1` [DMX-104, 2-((S)-3-Fluoro-pyrrolidin-1-yl)-5-[2-(6-{[(2-hydroxy-ethyl)-methyl-amino]-methyl}-pyridin-3-ylamino)-pyrimidin-4-yl]-nicotinonitrile], the IC50 on TBK1 and at IKKε was less than 100 nM each time.

As to `COCCNCc1cncc(Nc2nccc(-c3cnc(N4CC[C@H](F)C4)c(C#N)c3)n2)c1` [DMX-106, 2-((S)-3-Fluoro-pyrrolidin-1-yl)-5-(2-{5-[(2-methoxy-ethylamino)-methyl]-pyridin-3-ylamino}-pyrimidin-4-yl)-nicotinonitrile], the IC50 at TBK1 and on IKKε was less than 100 nM in each case.

Consider `N#Cc1cc(-c2ccnc(Nc3cncc(NC(=O)CN4CCOCC4)c3)n2)cnc1N1CC[C@H](F)C1` [DMX-108, N-(5-{4-[5-Cyano-6-((S)-3-fluoro-pyrrolidin-1-yl)-pyridin-3-yl]-pyrimidin-2-ylamino}-pyridin-3-yl)-2-morpholin-4-yl-acetamide], for which the IC50 at TBK1 is less than 30 nM; on IKKε it was less than 100 nM.

With `N#Cc1cc(-c2ccnc(Nc3cnc4c(c3)CNC4)n2)cnc1N1CC[C@H](F)C1` [DMX-109, 5-[2-(6,7-Dihydro-5H-pyrrolo[3,4-b]pyridin-3-ylamino)-pyrimidin-4-yl]-2-((S)-3-fluoro-pyrrolidin-1-yl)-nicotinonitrile], the IC50 is less than 100 nM at TBK1 and less than 30 nM on IKKε.

On to `CC1(O)CN(Cc2ccc(Nc3nccc(-c4cnc(N5CC[C@H](F)C5)c(C#N)c4)n3)cn2)C1` [DMX-110, 2-((S)-3-Fluoro-pyrrolidin-1-yl)-5-{2-[6-(3-hydroxy-3-methyl-azetidin-1-ylmethyl)-pyridin-3-ylamino]-pyrimidin-4-yl}-nicotinonitrile], for which the IC50 at TBK1 was less than 100 nM; at IKKε, less than 30 nM.

As to `N#Cc1cc(-c2ccnc(Nc3ccnc(NC(=O)CN4CCOCC4)c3)n2)cnc1N1CC[C@@H](F)C1` [DMX-111, N-(4-{4-[5-Cyano-6-((R)-3-fluoro-pyrrolidin-1-yl)-pyridin-3-yl]-pyrimidin-2-ylamino}-pyridin-2-yl)-2-morpholin-4-yl-acetamide], the IC50 was less than 15 nM on TBK1 and less than 30 nM on IKKε.

`N#Cc1cc(-c2ccnc(Nc3ccc(NC(=O)CN4CCOCC4)nc3)n2)cnc1N1CC[C@@H](F)C1` [DMX-112, N-(5-{4-[5-Cyano-6-((R)-3-fluoro-pyrrolidin-1-yl)-pyridin-3-yl]-pyrimidin-2-ylamino}-pyridin-2-yl)-2-morpholin-4-yl-acetamide]: the values for the IC50 on TBK1 and at IKKε were less than 30 nM and less than 15 nM, respectively.

`CC(=O)Nc1ccc(Nc2nccc(-c3cnc(N[C@@H]4CCOC4)c(C#N)c3)n2)cn1` [DMX-113, N-[5-(4-{5-Cyano-6-[(R)-(tetrahydro-furan-3-yl)amino]-pyridin-3-yl}-pyrimidin-2-ylamino)-pyridin-2-yl]-acetamide]: the IC50 at TBK1 and at IKKε was less than 1000 nM in each case.

Turning to `CN1CCC(Nc2ccc(Nc3nccc(-c4cnc(N[C@@H]5CCOC5)c(C#N)c4)n3)cn2)CC1` [DMX-114, 5-{2-[6-(1-Methyl-piperidin-4-ylamino)-pyridin-3-ylamino]-pyrimidin-4-yl}-2-[(R)-(tetrahydro-furan-3-yl)amino]-nicotinonitrile], the concentration for half-maximal inhibition (IC50) at TBK1 and at IKKε was less than 100 nM each time.

With `CN1CCC(NC(=O)c2cccc(Nc3nccc(-c4cnc(N[C@@H]5CCOC5)c(C#N)c4)n3)c2)CC1` [DMX-115, 3-(4-{5-Cyano-6-[(R)-(tetrahydro-furan-3-yl)amino]-pyridin-3-yl}-pyrimidin-2-ylamino)-N-(1-methyl-piperidin-4-yl)-benzamide], the IC50 on TBK1 and at IKKε was less than 1000 nM each time.

With `Cn1cc(Nc2nccc(-c3cnc(N[C@@H]4CCOC4)c(C#N)c3)n2)cn1` [DMX-116, 5-[2-(1-Methyl-1H-pyrazol-4-ylamino)-pyrimidin-4-yl]-2-[(R)-(tetrahydro-furan-3-yl)amino]-nicotinonitrile], the IC50 on TBK1 and at IKKε was less than 1000 nM each time.

Consider `N#Cc1cc(-c2ccnc(Nc3cccc(C(=O)NC4CCNCC4)c3)n2)cnc1N[C@@H]1CCOC1` [DMX-117, 3-(4-{5-Cyano-6-[(R)-(tetrahydro-furan-3-yl)amino]-pyridin-3-yl}-pyrimidin-2-ylamino)-N-piperidin-4-yl-benzamide], for which the IC50 on TBK1 and on IKKε was less than 1000 nM throughout.

As to `COCCNc1ncc(-c2ccnc(Nc3ccc(NC4CCN(C)CC4)nc3)n2)cc1C#N` [DMX-118, 2-(2-Methoxy-ethylamino)-5-{2-[6-(1-methyl-piperidin-4-ylamino)-pyridin-3-ylamino]-pyrimidin-4-yl}-nicotinonitrile], the 50% inhibitory concentration (IC50) at TBK1 and at IKKε was less than 1000 nM each time.

With `CNc1ncc(-c2ccnc(Nc3ccc(NC4CCN(C)CC4)nc3)n2)cc1C#N` [DMX-119, 2-Methylamino-5-{2-[6-(1-methyl-piperidin-4-ylamino)-pyridin-3-ylamino]-pyrimidin-4-yl}-nicotinonitrile], the IC50 on TBK1 was less than 100 nM; at IKKε it was less than 1000 nM.

Turning to `CN1CCC(Nc2ccc(Nc3nccc(-c4cnc(NCCO)c(C#N)c4)n3)cn2)CC1` [DMX-120, 2-(2-Hydroxy-ethylamino)-5-{2-[6-(1-methyl-piperidin-4-ylamino)-pyridin-3-ylamino]-pyrimidin-4-yl}-nicotinonitrile], the IC50 was less than 100 nM on TBK1 and less than 1000 nM at IKKε.

Consider `N#Cc1cc(-c2ccnc(Nc3ccc(CN4CCOCC4)nc3)n2)cnc1NC1CC1` [DMX-122, 2-Cyclopropylamino-5-[2-(6-morpholin-4-ylmethyl-pyridin-3-ylamino)-pyrimidin-4-yl]-nicotinonitrile], for which the concentration for half-maximal inhibition (IC50) at TBK1 was less than 100 nM; on IKKε, less than 1000 nM.

`N#Cc1cc(-c2nc(Nc3ccc(CN4CCOCC4)nc3)ncc2F)cnc1NC1CC1` [DMX-123, 2-Cyclopropylamino-5-[5-fluoro-2-(6-morpholin-4-ylmethyl-pyridin-3-ylamino)-pyrimidin-4-yl]-nicotinonitrile]: the IC50 is less than 100 nM at TBK1 and less than 1000 nM on IKKε.

For `N#Cc1cc(-c2nc(Nc3ccnc(NC(=O)CN4CCOCC4)c3)ncc2F)cnc1NC1CC1` [DMX-124, N-{4-[4-(5-Cyano-6-cyclopropylamino-pyridin-3-yl)-5-fluoro-pyrimidin-2-ylamino]-pyridin-2-yl}-2-morpholin-4-yl-acetamide], the IC50 on TBK1 is less than 100 nM; at IKKε, less than 1000 nM.

Regarding `COCCNc1cc(Nc2ncc(F)c(-c3cnc(NC4CC4)c(C#N)c3)n2)ccn1` [DMX-125, 2-Cyclopropylamino-5-{5-fluoro-2-[2-(2-methoxy-ethylamino)-pyridin-4-ylamino]-pyrimidin-4-yl}-nicotinonitrile], the figures for the IC50 on TBK1 and at IKKε were less than 100 nM and less than 1000 nM, respectively.
